Assay results from PubChem BioAssay AID1919013 (Molecular Pharmacology Branch, DTP, NCI, 2023).

System: LG0703-F498-PDC complex spheroid growth
Assay: Anticancer human tumor LG0703-F498-PDC patient-derived lung adenocarcinoma cell line growth inhibition [AhR]
Conditions: for IC50: curve of first compound; for viability, T/C: stronger effect = lower value
Procedure, shortened: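 Complex tumor spheroids co-cultured with HUVEC and human MSC stroma; AhR antagonists tested in combination with standard-of-care and investigational agents. Top concentration at or near clinical Cmax (else 10 microM), half-log dilutions; growth expressed as percent test/control.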

[1] = second compound 0.1 µM, first compound 0.00949 µM
[2] = second compound 0.1 µM, first compound 0.03 µM
[3] = second compound 0.1 µM, first compound 0.0949 µM
[4] = second compound 0.1 µM, first compound 0.3 µM
[5] = second compound 0.1 µM, first compound 0.949 µM
[6] = second compound 0.1 µM, first compound 3 µM
[7] = second compound 0.316 µM, first compound 0.00949 µM
[8] = second compound 0.316 µM, first compound 0.03 µM
[9] = second compound 0.316 µM, first compound 0.0949 µM
[10] = second compound 0.316 µM, first compound 0.3 µM
[11] = second compound 0.316 µM, first compound 0.949 µM
[12] = second compound 0.316 µM, first compound 3 µM
[13] = second compound 1 µM, first compound 0.00949 µM
[14] = second compound 1 µM, first compound 0.03 µM
[15] = second compound 1 µM, first compound 0.0949 µM
[16] = second compound 1 µM, first compound 0.3 µM
[17] = second compound 1 µM, first compound 0.949 µM
[18] = second compound 1 µM, first compound 3 µM
[19] = second compound 3.16 µM, first compound 0.00949 µM
[20] = second compound 3.16 µM, first compound 0.03 µM
[21] = second compound 3.16 µM, first compound 0.0949 µM
[22] = second compound 3.16 µM, first compound 0.3 µM
[23] = second compound 3.16 µM, first compound 0.949 µM
[24] = second compound 3.16 µM, first compound 3 µM
[25] = second compound 10 µM, first compound 0.00949 µM
[26] = second compound 10 µM, first compound 0.03 µM
[27] = second compound 10 µM, first compound 0.0949 µM
[28] = second compound 10 µM, first compound 0.3 µM
[29] = second compound 10 µM, first compound 0.949 µM
[30] = second compound 10 µM, first compound 3 µM
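Also: luminescence taken as a proxy for viable cell amount.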
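For viability, T/C in this document: percent of DMSO vehicle control where 100% means growth equal to vehicle.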

| SMILES | IC50 (second compound 0.1 µM) | IC50 (second compound 0.316 µM) | IC50 (second compound 1 µM) | IC50 (second compound 3.16 µM) | IC50 (second compound 10 µM) | viability, T/C [1] | viability, T/C [2] | viability, T/C [3] | viability, T/C [4] | viability, T/C [7] | viability, T/C [8] | viability, T/C [9] | viability, T/C [10] | viability, T/C [13] | viability, T/C [14] | viability, T/C [15] | viability, T/C [16] | viability, T/C [19] | viability, T/C [20] | viability, T/C [21] | further results |
| --- | --- | --- | --- | --- | --- | --- | --- | --- | --- | --- | --- | --- | --- | --- | --- | --- | --- | --- | --- | --- | --- |
| CCN(c1cc(-c2ccc(CN3CCOCC3)cc2)cc(C(=O)NCc2c(C)cc(C)[nH]c2=O)c1C)C1CCOCC1 + Cc1cncc(-c2nc(NCCc3c[nH]c4ccccc34)c3ncn(C(C)C)c3n2)c1 | > 3000 nM | > 3000 nM | > 3000 nM | < 9.49 nM | < 9.49 nM | 106% | 110% | 106% | 102% | 118% | 104% | 120% | 104% | 119% | 110% | 112% | 111% | 30.5% | 26.3% | 29.8% | viability, T/C [5]: 121%; viability, T/C [6]: 123%; viability, T/C [11]: 106%; viability, T/C [12]: 125%; viability, T/C [17]: 109%; viability, T/C [18]: 120%; viability, T/C [22]: 30.8%; viability, T/C [23]: 27.9%; viability, T/C [24]: 35.5%; viability, T/C [25]: 1.09%; viability, T/C [26]: 1.47%; viability, T/C [27]: 1.79%; viability, T/C [28]: 1.93%; viability, T/C [29]: 0.83%; viability, T/C [30]: 1.74% |
| Nc1ncn(C2CC(O)C(CO)S2)c(=O)n1 (stereo not given) + Cc1cncc(-c2nc(NCCc3c[nH]c4ccccc34)c3ncn(C(C)C)c3n2)c1 | > 300 nM | > 300 nM | > 300 nM | < 0.949 nM | < 0.949 nM | 91.9% | 98.4% | 104% | 105% | 108% | 115% | 109% | 99.1% | 78.2% | 86.3% | 94.4% | 103% | 4.63% | 5.24% | 2.89% | viability, T/C (second compound 0.1 µM, first compound 0.000949 µM): 107%; viability, T/C (second compound 0.1 µM, first compound 0.003 µM): 109%; viability, T/C (second compound 0.316 µM, first compound 0.000949 µM): 117%; viability, T/C (second compound 0.316 µM, first compound 0.003 µM): 107%; viability, T/C (second compound 1 µM, first compound 0.000949 µM): 87.3%; viability, T/C (second compound 1 µM, first compound 0.003 µM): 89.1%; viability, T/C (second compound 3.16 µM, first compound 0.000949 µM): 3.25%; viability, T/C (second compound 3.16 µM, first compound 0.003 µM): 3.89%; viability, T/C [22]: 4.14%; viability, T/C (second compound 10 µM, first compound 0.000949 µM): 1.24%; viability, T/C (second compound 10 µM, first compound 0.003 µM): 0.8%; viability, T/C [25]: 1.81%; viability, T/C [26]: 1.01%; viability, T/C [27]: 1.6%; viability, T/C [28]: 1.59% |
| O=C(C=Cn1cnc(-c2cc(C(F)(F)F)cc(C(F)(F)F)c2)n1)NNc1cnccn1 + Cc1cncc(-c2nc(NCCc3c[nH]c4ccccc34)c3ncn(C(C)C)c3n2)c1 | 116 nM | 115 nM | 99.1 nM | 24.9 nM | < 9.49 nM | 87.9% | 70.4% | 49.8% | 40% | 82.4% | 69.7% | 51.8% | 36.2% | 82.6% | 70.9% | 48.8% | 38.2% | 62.3% | 47.4% | 34.3% | viability, T/C [5]: 37.4%; viability, T/C [6]: 27.9%; viability, T/C [11]: 37.4%; viability, T/C [12]: 25%; viability, T/C [17]: 29.2%; viability, T/C [18]: 27.9%; viability, T/C [22]: 26%; viability, T/C [23]: 26.3%; viability, T/C [24]: 24.9%; viability, T/C [25]: 1.57%; viability, T/C [26]: 1.26%; viability, T/C [27]: 1.76%; viability, T/C [28]: 2.84%; viability, T/C [29]: 2.94%; viability, T/C [30]: 4.72% |
